Measured values taken from ChEMBL document CHEMBL3217541, “Optimisation of aqueous solubility in a series of G protein coupled receptor 119 (GPR119) agonists” (Medchemcomm, 2013).
In brackets after ≈: the same amount, converted by molar mass.

What was measured:
[1] = in vitro; conditions: human, liver microsomes
[2] = physchem; conditions: octanol/phosphate buffer, pH 7.4
[3] = physchem; conditions: aqueous phosphate buffer, pH 7.4
[4] = molecular target: T1, Glucose-dependent insulinotropic receptor (Mus musculus, UniProt Q7TQP3); test: Agonist activity at mouse GPR119 transfected in HEK293 cells assessed as cAMP accumulation after 45 mins incubation by HTRF assay; assay type: functional, cell-based
T1 sequence (Q7TQP3 whole entry): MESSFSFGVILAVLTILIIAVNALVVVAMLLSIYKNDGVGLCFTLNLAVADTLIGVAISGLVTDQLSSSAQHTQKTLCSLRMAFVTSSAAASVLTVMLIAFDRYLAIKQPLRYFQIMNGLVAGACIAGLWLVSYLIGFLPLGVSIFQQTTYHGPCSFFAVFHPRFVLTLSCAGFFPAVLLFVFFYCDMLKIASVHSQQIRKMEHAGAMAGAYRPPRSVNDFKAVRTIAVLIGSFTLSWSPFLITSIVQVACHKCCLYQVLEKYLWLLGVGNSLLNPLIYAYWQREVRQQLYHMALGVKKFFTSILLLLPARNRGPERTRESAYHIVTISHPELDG

[5] = molecular target: T2, Glucose-dependent insulinotropic receptor (Homo sapiens, UniProt Q8TDV5); test: Agonist activity at human GPR119 transfected in HEK293 cells assessed as cAMP accumulation after 45 mins incubation by HTRF assay; assay type: functional, cell-based
T2 sequence (Q8TDV5 whole entry): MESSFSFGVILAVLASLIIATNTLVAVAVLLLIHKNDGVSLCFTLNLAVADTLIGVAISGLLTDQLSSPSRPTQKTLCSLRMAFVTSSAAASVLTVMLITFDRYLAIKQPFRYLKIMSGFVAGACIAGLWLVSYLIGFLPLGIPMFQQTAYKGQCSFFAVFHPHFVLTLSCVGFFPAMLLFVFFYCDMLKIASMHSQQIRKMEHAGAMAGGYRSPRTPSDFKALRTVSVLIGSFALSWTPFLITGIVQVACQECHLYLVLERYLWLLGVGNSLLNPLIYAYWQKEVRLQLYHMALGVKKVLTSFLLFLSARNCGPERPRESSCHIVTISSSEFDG

[6] = molecular target: Cytochrome P450 2C9 (Homo sapiens, UniProt P11712); test: Inhibition of CYP2C9 (unknown origin); assay type: ADME
[7] = Apparent permeability across apical to basolateral side of human Caco2 cells; assay type: ADME, cell-based; conditions: Caco-2
[8] = Chemical stability of the compound at pH 10 at 10 uM after 18 hrs incubation at 65 degC; assay type: physicochemical; conditions: buffer
[9] = molecular target: Cytochrome P450 2D6 (Homo sapiens, UniProt P10635); test: Inhibition of CYP2D6 (unknown origin); assay type: ADME
[10] = Chemical stability of the compound at pH 4 at 10 uM after 18 hrs incubation at 65 degC; assay type: physicochemical; conditions: buffer
[11] = Chemical stability of the compound at pH 8 at 10 uM after 18 hrs incubation at 65 degC; assay type: physicochemical; conditions: buffer
[12] = Fraction unbound in mouse plasma; assay type: ADME, cell-free
[13] = molecular target: T3, Cytochrome P450 1A2 (Homo sapiens, UniProt P05177); test: Inhibition of CYP1A2 (unknown origin); assay type: ADME
T3 sequence (P05177 whole entry): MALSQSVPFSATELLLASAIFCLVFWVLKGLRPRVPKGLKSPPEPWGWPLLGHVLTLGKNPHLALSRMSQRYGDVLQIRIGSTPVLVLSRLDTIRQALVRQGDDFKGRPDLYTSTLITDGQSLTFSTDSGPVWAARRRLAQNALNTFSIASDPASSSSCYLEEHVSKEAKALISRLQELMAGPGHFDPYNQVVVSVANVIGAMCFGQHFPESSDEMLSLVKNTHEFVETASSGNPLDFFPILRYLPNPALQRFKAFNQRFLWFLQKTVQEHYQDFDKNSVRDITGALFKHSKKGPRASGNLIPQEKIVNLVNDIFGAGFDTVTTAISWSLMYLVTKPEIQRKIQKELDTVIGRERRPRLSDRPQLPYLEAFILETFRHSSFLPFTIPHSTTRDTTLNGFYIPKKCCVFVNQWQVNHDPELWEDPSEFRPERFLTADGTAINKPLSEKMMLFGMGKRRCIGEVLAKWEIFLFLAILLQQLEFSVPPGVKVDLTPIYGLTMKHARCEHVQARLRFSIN

[14] = molecular target: Cytochrome P450 2C19 (Homo sapiens, UniProt P33261); test: Inhibition of CYP2C19 (unknown origin); assay type: ADME
[15] = molecular target: Cytochrome P450 3A4 (Homo sapiens, UniProt P08684); test: Inhibition of CYP3A4 (unknown origin); assay type: ADME
[16] = Chemical stability of the compound at pH 6 at 10 uM after 18 hrs incubation at 65 degC; assay type: physicochemical; conditions: buffer
[17] = Apparent permeability across basolateral to apical side of human Caco2 cells; assay type: ADME, cell-based; conditions: Caco-2
[18] = Chemical stability of the compound at pH 1 at 10 uM after 18 hrs incubation at 65 degC; assay type: physicochemical; conditions: buffer
[19] = Fraction unbound in rat plasma; assay type: ADME, cell-free
[20] = molecular target: Voltage-gated inwardly rectifying potassium channel KCNH2 (Homo sapiens, UniProt Q12809); test: Inhibition of human ERG
Sequence of Voltage-gated inwardly rectifying potassium channel KCNH2 (Q12809 whole entry): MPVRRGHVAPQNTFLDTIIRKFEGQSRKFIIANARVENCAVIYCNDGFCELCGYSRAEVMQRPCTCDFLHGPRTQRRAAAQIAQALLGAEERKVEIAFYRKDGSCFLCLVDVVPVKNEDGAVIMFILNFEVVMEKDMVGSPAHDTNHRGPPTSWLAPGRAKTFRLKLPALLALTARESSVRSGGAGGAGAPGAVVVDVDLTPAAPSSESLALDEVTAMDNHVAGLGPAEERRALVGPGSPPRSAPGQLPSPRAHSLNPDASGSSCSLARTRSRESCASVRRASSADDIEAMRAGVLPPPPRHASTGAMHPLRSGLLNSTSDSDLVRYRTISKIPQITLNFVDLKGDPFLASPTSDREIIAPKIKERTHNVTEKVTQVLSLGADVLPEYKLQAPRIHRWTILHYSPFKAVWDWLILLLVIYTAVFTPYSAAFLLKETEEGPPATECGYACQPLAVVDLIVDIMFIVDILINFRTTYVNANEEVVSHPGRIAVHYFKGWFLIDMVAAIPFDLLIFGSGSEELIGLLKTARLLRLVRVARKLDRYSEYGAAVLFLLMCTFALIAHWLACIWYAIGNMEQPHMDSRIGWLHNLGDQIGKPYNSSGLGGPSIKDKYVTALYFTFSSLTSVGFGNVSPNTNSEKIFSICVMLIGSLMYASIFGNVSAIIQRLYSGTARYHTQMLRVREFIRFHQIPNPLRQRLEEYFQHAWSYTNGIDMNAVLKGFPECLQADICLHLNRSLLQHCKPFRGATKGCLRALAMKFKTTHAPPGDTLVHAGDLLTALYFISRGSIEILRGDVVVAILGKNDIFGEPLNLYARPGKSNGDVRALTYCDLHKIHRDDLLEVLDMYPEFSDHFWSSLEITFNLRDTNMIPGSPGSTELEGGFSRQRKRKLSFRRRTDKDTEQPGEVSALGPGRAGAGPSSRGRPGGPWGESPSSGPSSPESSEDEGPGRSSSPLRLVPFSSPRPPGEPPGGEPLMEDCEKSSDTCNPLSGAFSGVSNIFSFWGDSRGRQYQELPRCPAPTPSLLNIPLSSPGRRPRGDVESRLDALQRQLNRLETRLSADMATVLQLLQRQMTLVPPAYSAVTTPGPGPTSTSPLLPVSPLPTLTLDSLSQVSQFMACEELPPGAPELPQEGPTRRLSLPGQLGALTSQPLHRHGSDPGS

Sequence of Cytochrome P450 2C9 (P11712 whole entry): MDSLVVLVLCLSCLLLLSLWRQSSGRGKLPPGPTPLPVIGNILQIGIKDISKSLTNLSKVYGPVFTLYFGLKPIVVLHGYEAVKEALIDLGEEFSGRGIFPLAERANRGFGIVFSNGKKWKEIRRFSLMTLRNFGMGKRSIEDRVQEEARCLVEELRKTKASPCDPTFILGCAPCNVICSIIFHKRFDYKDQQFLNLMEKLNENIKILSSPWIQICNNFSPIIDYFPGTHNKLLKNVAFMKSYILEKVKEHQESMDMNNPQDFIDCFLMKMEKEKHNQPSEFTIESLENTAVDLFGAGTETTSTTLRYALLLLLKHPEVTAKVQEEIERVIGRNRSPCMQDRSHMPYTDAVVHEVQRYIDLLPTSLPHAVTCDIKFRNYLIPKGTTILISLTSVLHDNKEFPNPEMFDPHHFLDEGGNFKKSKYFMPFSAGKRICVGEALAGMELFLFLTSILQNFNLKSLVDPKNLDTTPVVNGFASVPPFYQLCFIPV
Sequence of Cytochrome P450 3A4 (P08684 whole entry): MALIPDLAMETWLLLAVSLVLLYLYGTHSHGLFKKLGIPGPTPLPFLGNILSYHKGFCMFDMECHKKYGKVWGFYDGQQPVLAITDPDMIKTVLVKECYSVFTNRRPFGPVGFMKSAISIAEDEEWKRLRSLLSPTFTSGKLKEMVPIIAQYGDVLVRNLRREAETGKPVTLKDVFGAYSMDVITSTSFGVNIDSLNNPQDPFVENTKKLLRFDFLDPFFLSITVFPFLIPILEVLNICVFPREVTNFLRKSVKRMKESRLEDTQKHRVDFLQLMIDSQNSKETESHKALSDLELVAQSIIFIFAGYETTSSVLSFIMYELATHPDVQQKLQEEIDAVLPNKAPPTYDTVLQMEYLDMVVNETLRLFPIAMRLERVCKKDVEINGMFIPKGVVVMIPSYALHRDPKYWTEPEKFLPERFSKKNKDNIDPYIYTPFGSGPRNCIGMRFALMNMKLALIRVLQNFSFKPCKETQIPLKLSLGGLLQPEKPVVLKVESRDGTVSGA
Sequence of Cytochrome P450 2C19 (P33261 whole entry): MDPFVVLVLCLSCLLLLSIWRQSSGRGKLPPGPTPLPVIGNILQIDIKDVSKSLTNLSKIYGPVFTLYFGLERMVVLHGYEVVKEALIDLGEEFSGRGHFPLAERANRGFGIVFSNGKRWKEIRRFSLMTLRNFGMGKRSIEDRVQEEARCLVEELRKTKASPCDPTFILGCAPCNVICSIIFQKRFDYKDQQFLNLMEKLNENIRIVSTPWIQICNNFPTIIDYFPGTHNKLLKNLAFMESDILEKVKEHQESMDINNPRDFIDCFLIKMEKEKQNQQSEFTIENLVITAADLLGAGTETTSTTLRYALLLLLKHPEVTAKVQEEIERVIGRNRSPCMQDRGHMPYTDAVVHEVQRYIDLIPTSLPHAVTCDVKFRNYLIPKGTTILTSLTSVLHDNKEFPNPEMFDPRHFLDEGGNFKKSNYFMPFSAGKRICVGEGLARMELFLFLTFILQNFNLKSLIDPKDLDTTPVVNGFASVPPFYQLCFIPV
Sequence of Cytochrome P450 2D6 (P10635 whole entry): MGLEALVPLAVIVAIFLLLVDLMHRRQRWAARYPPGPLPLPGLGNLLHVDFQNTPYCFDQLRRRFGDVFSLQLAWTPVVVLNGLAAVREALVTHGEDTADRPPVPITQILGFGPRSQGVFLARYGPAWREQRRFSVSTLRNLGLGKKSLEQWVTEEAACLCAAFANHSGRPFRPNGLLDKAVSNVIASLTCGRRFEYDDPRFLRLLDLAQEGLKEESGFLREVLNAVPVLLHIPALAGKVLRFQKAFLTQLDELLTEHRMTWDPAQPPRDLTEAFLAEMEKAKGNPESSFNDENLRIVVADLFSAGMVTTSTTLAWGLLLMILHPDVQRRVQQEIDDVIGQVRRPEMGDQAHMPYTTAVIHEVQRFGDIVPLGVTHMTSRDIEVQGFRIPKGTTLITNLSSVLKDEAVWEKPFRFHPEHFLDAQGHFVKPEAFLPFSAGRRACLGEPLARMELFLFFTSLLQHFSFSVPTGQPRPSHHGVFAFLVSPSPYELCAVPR

Row | microsomal CLint [1] [µL/min/mg] | logD [2] | solubility at 24 h [3] [µM] | EC50 [4] [nM] | EC50 [5] [nM] | SMILES | further results
1 | 5 | 1.6 | > 2200 |  |  | C[C@@H]1CN(C(=O)OC2COC2)CCN1c1ncc(OCc2ccncc2C#N)cn1 | 
2 | 14 | 2.4 | 8 (≈ 3.49 µg/mL) | 631 | 631 | C[C@@H]1CN(c2noc(C(C)(C)O)n2)CCN1c1ncc(OCc2ccncc2C#N)cn1 | 
3 | 44 | 2.5 | 110 (≈ 52.6 µg/mL) | 158 | 20 | C[C@@H]1CN(C(=O)OC2(C(F)(F)F)COC2)CCN1c1ncc(OCc2ccncc2C#N)cn1 | INH [6]: > 25 µM; Papp A→B [7]: 16 ×10⁻⁶ cm/s; half-life at 10 µM [8]: 0.96 h; INH [9]: > 25 µM; half-life at 10 µM [10]: > 240 h; half-life at 10 µM [11]: > 240 h; fraction unbound [12]: 0.081; INH [13]: > 25 µM; INH [14]: > 25 µM; INH [15]: > 25 µM; half-life at 10 µM [16]: > 240 h; Papp B→A [17]: 9 ×10⁻⁶ cm/s; half-life at 10 µM [18]: 9.84 h; fraction unbound [19]: 0.047; INH [20]: 12 µM
4 | 26 | 2.3 | 30 (≈ 13.9 µg/mL) | 631 | 100 | C[C@@H]1CN(c2noc(C3COCCO3)n2)CCN1c1ncc(OCc2ccncc2C#N)cn1 (some centres undefined) | 
5 | 308 |  |  | 501 | 200 | CC(C)C1(OC(=O)N2CCN(c3ncc(OCc4ccncc4C#N)cn3)[C@H](C)C2)COC1 | 
6 | 107 | 3.1 | 34 (≈ 16.7 µg/mL) |  |  | C[C@@H]1CN(C(=O)OC2(C(F)(F)F)CCOC2)CCN1c1ncc(OCc2ccncc2C#N)cn1 (some centres undefined) | 
7 |  |  |  |  |  | C[C@@H]1CN(c2nnc(C(F)(F)F)o2)CCN1c1ncc(OCc2ccncc2C#N)cn1 | half-life at 10 µM [8]: 13.4 h; half-life at 10 µM [10]: > 240 h; half-life at 10 µM [11]: > 240 h; half-life at 10 µM [16]: > 240 h; half-life at 10 µM [18]: 10.8 h
8 |  |  | 180 (≈ 73.9 µg/mL) |  |  | N#Cc1cnccc1COc1cnc(N2CCN(C(=O)OC3CCOC3)CC2)nc1 (racemic) | 
9 | 43 |  |  |  |  | C[C@@H]1CN(C(=O)OC(C)(C)C)CCN1c1ncc(OCc2ccncc2C#N)cn1 | 
10 | 23 |  | > 860 | 631 | 200 | C[C@@H]1CN(C(=O)OC2(C)COC2)CCN1c1ncc(OCc2ccncc2C#N)cn1 | 
11 | 23 |  | 6 (≈ 2.52 µg/mL) |  |  | CC(C)c1nc(N2CCN(c3ncc(OCc4ccncc4C#N)cn3)[C@H](C)C2)no1 | INH [6]: > 25 µM; INH [9]: > 25 µM; INH [13]: > 25 µM; INH [14]: > 25 µM; INH [15]: > 25 µM; INH [20]: 10 µM
12 | 37 | 2.2 | 110 (≈ 48.2 µg/mL) | > 7940 | 631 | C[C@@H]1CN(C(=O)OC2CCOCC2)CCN1c1ncc(OCc2ccncc2C#N)cn1 | 
13 |  |  | 0.03 (≈ 0.0135 µg/mL) |  |  | CC(C)(C)OC(=O)N1CCN(c2ncc(OCc3ccc(S(C)(=O)=O)cc3)cn2)CC1 | half-life at 10 µM [8]: < 0.144 h; half-life at 10 µM [10]: 1.44 h; half-life at 10 µM [11]: 2.64 h; half-life at 10 µM [16]: 2.88 h; half-life at 10 µM [18]: < 1.8 h
14 | 43 | 3 | 59 (≈ 26.5 µg/mL) | 100 | 63.1 | C[C@@H]1CN(c2noc(C3(C)COC3)n2)CCN1c1ncc(OCc2ccncc2C#N)cn1 | 
